According to patent publication US8952024B2, “Herbicidal pyrimidone derivatives” (E I du Pont de Nemours and Company, priority 2009, dated 2015):

Tests used:
Format in all cases: in vivo
[1] = test system: bermudagrass (Cynodon dactylon); experiment: Test B pre-/postemergence plant response
Source text: (§1) Seeds of plant species selected from blackgrass (Alopecurus myosuroides), downy bromegrass (Bromus tectorum), green foxtail (Setaria viridis), Italian ryegrass (Lolium multiflorum), wheat (Triticum aestivum), wild oat (Avena fatua), deadnettle (henbit deadnettle, Lamium amplexicaule), galium (catchweed bedstraw, Galium aparine), bermudagrass (Cynodon dactylon), Surinam grass (Brachiaria decumbens), cocklebur (Xanthium strumarium), corn (Zea mays), large crabgrass (Digitaria sanguinalis), woolly cupgrass (Eriochloa villosa), giant foxtail (Setaria faberii), goosegrass (Eleusine indica), johnsongrass (Sorghum halepense), kochia (Kochia scoparia), lambsquarters (Chenopodium album), morningglory (Ipomoea coccinea), nightshade (eastern black nightshade, Solanum ptycanthum), yellow nutsedge (Cyperus esculentus), pigweed (Amaranthus retroflexus), ragweed (common ragweed, Ambrosia elatior), Russian thistle (Salsola kali), soybean (Glycine max), sunflower (common oilseed sunflower, Helianthus annuus) and velvetleaf (Abutilon theophrasti) were planted into a blend of loam soil and sand and treated preemergence with test compounds formulated in a non-phytotoxic solvent mixture which included a surfactant.
(§2) At the same time, plants selected from these crop and weed species and also winter barley (Hordeum vulgare), canarygrass (Phalaris minor), chickweed (Stellaria media) and windgrass (Apera spica-venti) were planted in pots containing Redi-Earth® planting medium (Scotts Company, 14111 Scottslawn Road, Marysville, Ohio 43041) comprising spaghnum peat moss, vermiculite, wetting agent and starter nutrients and treated with postemergence applications of some of the test chemicals formulated in the same manner. Plants ranged in height from 2 to 18 cm (1- to 4-leaf stage) for postemergence treatments.
(§3) Treated plants and controls were maintained in a greenhouse for 13 to 15 days, after which time all treated plants were visually evaluated and compared to controls. Plant response ratings, summarized in Table B, are based on a scale of 0 to 100 where 0 is no effect and 100 is complete control. A dash (-) response means no test result.

kochia (Kochia scoparia) = experiment: Test B pre-/postemergence plant response
Source text: as §1, §2, §3

[2] = test system: pigweed (Amaranthus retroflexus); experiment: Test B pre-/postemergence plant response
Source text: as §1, §2, §3

[3] = test system: green foxtail (Setaria viridis); experiment: Test B pre-/postemergence plant response
Source text: as §1, §2, §3

wild oat (Avena fatua) = experiment: Test B pre-/postemergence plant response
Source text: as §1, §2, §3

soybean (Glycine max) = experiment: Test B pre-/postemergence plant response
Source text: as §1, §2, §3

[4] = test system: ragweed (common ragweed, Ambrosia elatior); experiment: Test B pre-/postemergence plant response
Source text: as §1, §2, §3

corn (Zea mays) = experiment: Test B pre-/postemergence plant response
Source text: as §1, §2, §3

[5] = test system: cocklebur (Xanthium strumarium); experiment: Test B pre-/postemergence plant response
Source text: as §1, §2, §3

[6] = test system: giant foxtail (Setaria faberii); experiment: Test B pre-/postemergence plant response
Source text: as §1, §2, §3

[7] = test system: lambsquarters (Chenopodium album); experiment: Test B pre-/postemergence plant response
Source text: as §1, §2, §3

[8] = test system: johnsongrass (Sorghum halepense); experiment: Test B pre-/postemergence plant response
Source text: as §1, §2, §3

rice (Oryza sativa) = experiment: Test B flooded paddy test; conditions: for Plant response rating, Rice: Flood (flooded paddy test), 13 to 15 days
How it was run: (§4)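 Visual scores run from 0 (no effect) to 100 (complete control), assigned by comparison with controls 13 to 15 days after treatment. Test compounds went straight into water standing 3 cm above the soil, around plants at the 2-leaf stage kept in a greenhouse.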

[9] = test system: umbrella sedge (Cyperus difformis); experiment: Test B flooded paddy test; conditions: for Plant response rating, Sedge, Umbrella: Flood (flooded paddy test), 13 to 15 days
How it was run: as §4

[10] = test system: ducksalad (Heteranthera limosa); experiment: Test B flooded paddy test; conditions: for Plant response rating, Ducksalad: Flood (flooded paddy test), 13 to 15 days
How it was run: as §4

[11] = test system: barnyardgrass (Echinochloa crus-galli); experiment: Test B flooded paddy test; conditions: for Plant response rating, Barnyardgrass: Flood (flooded paddy test), 13 to 15 days
How it was run: as §4

[12] = 31 g ai/ha, postemergence, scale 0 to 100, 0 is no effect, 100 is complete control
[13] = 62 g ai/ha, postemergence, 0 is no effect, 100 is complete control, 13 to 15 days
[14] = 250 g ai/ha, Preemergence, 0 to 100 scale
[15] = Postemergence, 125 g ai/ha, visual rating after 13 to 15 days, scale 0 (no effect) to 100 (complete control)
[16] = Postemergence, 250 g ai/ha, scale 0 to 100 (0 no effect, 100 complete control)
[17] = Preemergence, 31 g ai/ha, scale 0 to 100 (0 no effect, 100 complete control)
[18] = Preemergence, 62 g ai/ha, scale 0 to 100, 0 no effect, 100 complete control
[19] = Preemergence, 125 g ai/ha, scale 0 to 100, 0 no effect, 100 complete control
[20] = 250 g ai/ha, flooded paddy test, visual rating on 0 to 100 scale (0 no effect, 100 complete control) after 13 to 15 days
[21] = 62 g ai/ha, scale of 0 to 100 where 0 is no effect and 100 is complete control
[22] = 125 g ai/ha, scale 0 to 100, 0 is no effect, 100 is complete control
[23] = Flood, 31 g ai/ha, scale 0 to 100 (0 no effect, 100 complete control)

## CC(C)Cc1ncc(C(=O)C2=C(O)CCCC2=O)c(=O)n1-c1ccccc1 [Compound 68]
[1]; [12]
  Plant response rating, Bermudagrass: 75
[1]; [13]
  Bermudagrass plant response rating (0 to 100 scale): 75
[1]; [14]
  Plant response rating, Bermudagrass: 100
[1]; [15]
  Plant response rating, Bermudagrass: 95
[1]; [16]
  Plant response rating, Bermudagrass: 98
[1]; [17]
  Plant response rating, Bermudagrass: 95
[1]; [18]
  Plant response rating, Bermudagrass: 98
[1]; [19]
  Plant response rating, Bermudagrass: 98
Kochia (Kochia scoparia); [12]
  Plant response rating, Kochia: 70
Kochia (Kochia scoparia); [13]
  Kochia plant response rating (0 to 100 scale): 90
Kochia (Kochia scoparia); [14]
  Plant response rating, Kochia: 95
Kochia (Kochia scoparia); [15]
  Plant response rating, Kochia: 95
Kochia (Kochia scoparia); [16]
  Plant response rating, Kochia: 98
Kochia (Kochia scoparia); [17]
  Plant response rating, Kochia: 80
Kochia (Kochia scoparia); [18]
  Plant response rating, Kochia: 80
Kochia (Kochia scoparia); [19]
  Plant response rating, Kochia: 95
[2]; [12]
  Plant response rating, Pigweed: 85
[2]; [13]
  Pigweed plant response rating (0 to 100 scale): 95
[2]; [15]
  Plant response rating, Pigweed: 100
[2]; [16]
  Plant response rating, Pigweed: 100
[2]; [17]
  Plant response rating, Pigweed: 95
[2]; [18]
  Plant response rating, Pigweed: 98
[2]; [19]
  Plant response rating, Pigweed: 100
[3]; [12]
  Plant response rating, Foxtail, Green: 40
[3]; [13]
  Foxtail, Green plant response rating (0 to 100 scale): 85
[3]; [14]
  Plant response rating, Foxtail, Green: 85
[3]; [15]
  Plant response rating, Foxtail, Green: 85
[3]; [16]
  Plant response rating, Foxtail, Green: 95
[3]; [17]
  Plant response rating, Foxtail, Green: 0
[3]; [18]
  Plant response rating, Foxtail, Green: 5
[3]; [19]
  Plant response rating, Foxtail, Green: 25
Wild oat (Avena fatua); [12]
  Plant response rating, Oat, Wild: 5
Wild oat (Avena fatua); [13]
  Oat, Wild plant response rating (0 to 100 scale): 20
Wild oat (Avena fatua); [15]
  Plant response rating, Oat, Wild: 50
Wild oat (Avena fatua); [16]
  Plant response rating, Oat, Wild: 70
Wild oat (Avena fatua); [17]
  Plant response rating, Oat, Wild: 0
Wild oat (Avena fatua); [18]
  Plant response rating, Oat, Wild: 0
Wild oat (Avena fatua); [19]
  Plant response rating, Oat, Wild: 0
Soybean (Glycine max); [12]
  Plant response rating, Soybean: 80
Soybean (Glycine max); [13]
  Soybean plant response rating (0 to 100 scale): 95
Soybean (Glycine max); [15]
  Plant response rating, Soybean: 98
Soybean (Glycine max); [16]
  Plant response rating, Soybean: 98
[4]; [12]
  Plant response rating, Ragweed: 75
[4]; [13]
  Ragweed plant response rating (0 to 100 scale): 80
[4]; [15]
  Plant response rating, Ragweed: 80
[4]; [16]
  Plant response rating, Ragweed: 95
[4]; [17]
  Plant response rating, Ragweed: 10
[4]; [18]
  Plant response rating, Ragweed: 75
[4]; [19]
  Plant response rating, Ragweed: 80
Corn (Zea mays); [12]
  Plant response rating, Corn: 0
Corn (Zea mays); [13]
  Corn plant response rating (0 to 100 scale): 15
Corn (Zea mays); [14]
  Plant response rating, Corn: 0
Corn (Zea mays); [15]
  Plant response rating, Corn: 80
Corn (Zea mays); [16]
  Plant response rating, Corn: 80
Corn (Zea mays); [17]
  Plant response rating, Corn: 0
Corn (Zea mays); [18]
  Plant response rating, Corn: 0
Corn (Zea mays); [19]
  Plant response rating, Corn: 0
[5]; [12]
  Plant response rating, Cocklebur: 25
[5]; [13]
  Cocklebur plant response rating (0 to 100 scale): 75
[5]; [14]
  Plant response rating, Cocklebur: 80
[5]; [15]
  Plant response rating, Cocklebur: 90
[5]; [16]
  Plant response rating, Cocklebur: 90
[5]; [17]
  Plant response rating, Cocklebur: 0
[5]; [18]
  Plant response rating, Cocklebur: 10
[6]; [12]
  Plant response rating, Foxtail, Giant: 65
[6]; [13]
  Foxtail, Giant plant response rating (0 to 100 scale): 80
[6]; [14]
  Plant response rating, Foxtail, Giant: 75
[6]; [15]
  Plant response rating, Foxtail, Giant: 85
[6]; [16]
  Plant response rating, Foxtail, Giant: 90
[6]; [17]
  Plant response rating, Foxtail, Giant: 0
[6]; [18]
  Plant response rating, Foxtail, Giant: 20
[6]; [19]
  Plant response rating, Foxtail, Giant: 55
[7]; [12]
  Plant response rating, Lambsquarters: 95
[7]; [13]
  Lambsquarters plant response rating (0 to 100 scale): 98
[7]; [14]
  Plant response rating, Lambsquarters: 100
[7]; [15]
  Plant response rating, Lambsquarters: 100
[7]; [16]
  Plant response rating, Lambsquarters: 100
[7]; [17]
  Plant response rating, Lambsquarters: 98
[7]; [18]
  Plant response rating, Lambsquarters: 98
[7]; [19]
  Plant response rating, Lambsquarters: 98
[8]; [12]
  Plant response rating, Johnsongrass: 10
[8]; [13]
  Johnsongrass plant response rating (0 to 100 scale): 10
[8]; [14]
  Plant response rating, Johnsongrass: 95
[8]; [15]
  Plant response rating, Johnsongrass: 75
[8]; [16]
  Plant response rating, Johnsongrass: 100
[8]; [17]
  Plant response rating, Johnsongrass: 0
[8]; [18]
  Plant response rating, Johnsongrass: 5
[8]; [19]
  Plant response rating, Johnsongrass: 75
Rice (Oryza sativa); [20]
  Plant response rating, Flood, Rice: 30
Rice (Oryza sativa); [21]
  Plant response rating, Rice: 15
Rice (Oryza sativa); [22]
  Plant response rating, Rice: 20
Rice (Oryza sativa); [23]
  Rice plant response rating: 0
[9]; [20]
  Plant response rating, Flood, Sedge, Umbrella: 0
[9]; [21]
  Plant response rating, Sedge, Umbrella: 0
[9]; [22]
  Plant response rating, Sedge, Umbrella: 0
[9]; [23]
  Sedge, Umbrella plant response rating: 0
[10]; [20]
  Plant response rating, Flood, Ducksalad: 40
[10]; [21]
  Plant response rating, Ducksalad: 0
[10]; [22]
  Plant response rating, Ducksalad: 30
[10]; [23]
  Ducksalad plant response rating: 0
[11]; [20]
  Plant response rating, Flood, Barnyardgrass: 20
[11]; [21]
  Plant response rating, Barnyardgrass: 0
[11]; [22]
  Plant response rating, Barnyardgrass: 0
[11]; [23]
  Barnyardgrass plant response rating: 0
